From US5932559A, “Treatment of hyperandrogenic conditions” (Merck & Co., Inc., priority 1996, dated 1999)

Columns and labels:
[1] = molecular target: T1, type 2 5α-reductase (Homo sapiens, UniProt P31213); assay: Progress curves of DHT formation, time course of inhibition of baculovirus expressed type 2 5α-reductase; format: biochemical; conditions: 20 nM inhibitor, pH 7.2, 37° C.
T1 construct: made in house
T1 sequence (P31213 1-254): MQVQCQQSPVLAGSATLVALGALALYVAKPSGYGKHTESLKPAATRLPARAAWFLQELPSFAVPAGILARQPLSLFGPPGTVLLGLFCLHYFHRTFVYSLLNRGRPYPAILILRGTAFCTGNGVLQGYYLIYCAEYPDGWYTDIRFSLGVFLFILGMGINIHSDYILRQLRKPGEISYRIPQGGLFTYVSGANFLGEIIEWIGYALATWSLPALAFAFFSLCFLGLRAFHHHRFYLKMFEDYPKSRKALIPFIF
Description: Ethanol is included at 1% final concentration as the vehicle for introduction of inhibitors. The rate of production of [^3 H]dihydrotestosterone is approximately constant for up to 2 hours or 10% consumption of substrate. A unit of enzyme activity was defined as 1 pmol product/min, and is equal to 444 fmol enzyme under these conditions.
After quenching the reactions with an equal volume, or more, of water containing 1% trifluoroacetic acid, the [^3 H]dihydrotestosterone is isolated by direct injection onto a reverse phase C-18 column (Vydac 4.6×250 mm, 300 Å, 5 micron), which is run in an isocratic system of 40% water (containing 0.1% trifluoroacetic acid) and 60% methanol at 1 mL/min. […] The effluent containing the [^3 H]dihydrotestosterone peak (6 mL) is collected in a liquid scintillation vial and counted with AQUASOL 2 (14 mL, New England Nuclear) with an efficiency of 0.309. […]
The native human enzyme was from prostate (type 2) or scalp (type 1) tissue, and the recombinant human enzymes were produced by the baculovirus expression system of Anderson, et al. (Chan, H K, Geissler, W M, Anderson, S, Sex Hormones and Antihormones in Endocrine Dependent Pathology: Basic and Clinical Aspects, M. Motta and M. Serio, eds., Elsevier Science 1994). […] Enzyme concentrations were determined by titration with finasteride, or [^3 H]finasteridem, or from catalytic activity using kcat and Km values. […]

[2] = tested on: human prostate (type 2) isozyme; conditions: cited from earlier work
[3] = tested on: human skin (type 1) isozyme; conditions: cited from earlier work
[4] = tested on: dihydrotestosterone; conditions: after withdrawal of finasteride; cited from earlier work
[5] = molecular target: T1, type 2 5α-reductase; assay: Kinetic constants of baculovirus-expressed type 2 5α-reductase under the standard assay conditions; format: biochemical
Description: Ethanol is included at 1% final concentration as the vehicle for introduction of inhibitors. […] A unit of enzyme activity was defined as 1 pmol product/min, and is equal to 444 fmol enzyme under these conditions.
When tissue extracts are the source of enzyme, the quenched reactions are clarified by centrifugation at 10,000×g before analysis.
The molecular weight was taken to be about 30,000 in estimating enzyme purity.

[6] = tested on: native human prostate enzyme; conditions: read-out: Km (Faller et al.), neutral pH; cited from earlier work

Compound: CCN(CC)C(=O)[C@H]1CC[C@H]2[C@@H]3CC[C@H]4OC(=O)C=C[C@]4(C)[C@H]3CC[C@]12C [L-682,299, 17β-(N-diethyl)carbamoyl-4-oxa-5α-androst-1-en-3-one]
- velocity at infinite-time [1]: essentially zero
- inhibition of the enzyme at infinite time ([1]; inhibition developed slowly with time): total inhibition

Compound: CC(C)(C)NC(=O)[C@H]1CC[C@H]2[C@@H]3CC[C@H]4NC(=O)C=C[C@]4(C)[C@H]3CC[C@]12C [finasteride, 17β-(N-tert-butylcarbamoyl)-3-oxo-4-aza-5α-androst-1-ene-3-one]
- rate constant of binding to the human prostate isozyme ([2]; Faller et al., slow-binding): 270000 M⁻¹ s⁻¹
- inhibition type, human prostate (type 2) isozyme ([2]; Harris et al.): slow-binding inhibitors
- inhibition of type 2 isozyme, in words ([2]; predominates in the prostate): potently inhibited
- inhibition of human skin (type 1) isozyme at clinical doses, in words ([3]; at doses employed in the treatment of BPH): not a significant inhibitor
- sensitivity of type 1 isozyme, in words ([3]; sebaceous glands of most regions of skin tissue): relatively insensitive
- type 1 rate constant as percent of the rate constant against the prostate isozyme ([3]; type 1 vs type 2): about 1%
- time required for dihydrotestosterone to return to basal levels after withdrawal [4]: as long as two weeks

Compound: C[C@]12CC[C@H]3[C@@H](CCC4=CC(=O)CC[C@@]43C)[C@@H]1CC[C@@H]2O [testosterone]
- Km ([5]; baculovirus-expressed type 2, pH 7.2, 37° C., read-out: Km for testosterone): 0.0246 ± 0.0007 µM
- turnover number kcat ([5]; type 2, pH 7.2, 37° C., by titration with finasteride): 0.075 ± 0.006 s⁻¹
- Km [6]: 0.02 ± 0.003 µM
